Reference: ChEMBL document CHEMBL1201862, “PubChem BioAssay data set” (2004)
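All cell lines were grown in 96-well plates and treated with compound for 48 hours. GI50 marks 50% less growth.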 The source made the active and inactive calls. Rule as the data show it: active = GI50 up to about 1.1 µM and inactive = higher.

Key:
Test in all cases: growth of human tumour cells (NCI), 48 h
SNB-19 = test system: SNB-19
SR = test system: SR
MOLT-4 = test system: MOLT-4
EKVX = test system: EKVX
MCF7 = test system: MCF7
NCI-H23 = test system: NCI-H23
RXF 393 = test system: RXF 393
RPMI-8226 = test system: RPMI-8226
HCC 2998 = test system: HCC 2998
SF-268 = test system: SF-268
MDA-N = test system: MDA-N
HOP-62 = test system: HOP-62
PC-3 = test system: PC-3
HCT-15 = test system: HCT-15
SK-MEL-5 = test system: SK-MEL-5
LOX IMVI = test system: LOX IMVI
SNB-75 = test system: SNB-75
IGROV-1 = test system: IGROV-1
UO-31 = test system: UO-31
CCRF-CEM = test system: CCRF-CEM

Structure (SMILES) | GI50 (SNB-19) | GI50 (SR) | GI50 (MOLT-4) | GI50 (EKVX) | GI50 (MCF7) | GI50 (NCI-H23) | GI50 (RXF 393) | GI50 (RPMI-8226) | GI50 (HCC 2998) | GI50 (SF-268) | GI50 (MDA-N) | GI50 (HOP-62) | GI50 (PC-3) | GI50 (HCT-15) [µM] | GI50 (SK-MEL-5) | GI50 (LOX IMVI) | GI50 (SNB-75) | GI50 (IGROV-1) | GI50 (UO-31) | GI50 (CCRF-CEM)
Cc1cccc(-c2cc(O)c3c(C)cc(C)nc3n2)c1 | 4.38 µM (inactive) | 0.38 µM (active) | 5.06 µM (inactive) | 22 µM (inactive) | 0.962 µM (active) | 3.65 µM (inactive) | 3.41 µM (inactive) | 4.07 µM (inactive) | 4.9 µM (inactive) | 6.21 µM (inactive) | 0.313 µM (active) | 4.52 µM (inactive) | 2.43 µM (inactive) | 1.32 | 1.05 µM (active) | 4.82 µM (inactive) | 1.99 µM (inactive) | 4.06 µM (inactive) | 9.91 µM (inactive) | 3.45 µM (inactive)
Oc1ccccc1/C=N/N1C(=S)N(c2ccccc2)C(=N\c2ccccc2)/C1=N/c1ccccc1 | 6.47 µM (inactive) | 18.7 µM (inactive) | > 33.3 µM (inactive) | 14.9 µM (inactive) | > 100 µM (inactive) | 11.1 µM (inactive) | 5.41 µM (inactive) | > 35.6 µM (inactive) | 23.1 µM (inactive) | 12.1 µM (inactive) | 18.5 µM (inactive) | 9.35 µM (inactive) | 16.9 µM (inactive) | 35 | 18.2 µM (inactive) | 13.7 µM (inactive) | 3.21 µM (inactive) | 14 µM (inactive) | 14 µM (inactive) | > 37 µM (inactive)
O=C1NN=C(c2ccc(Cl)cc2)CC1C1C(=O)N(c2ccccc2)N=C1c1ccccc1 (stereo not given) | 33.8 µM (inactive) | 93.1 µM (inactive) | 28.1 µM (inactive) | 35 µM (inactive) | 40.5 µM (inactive) | 23.3 µM (inactive) | 22.5 µM (inactive) | 37.1 µM (inactive) | 26.8 µM (inactive) | 48.2 µM (inactive) | 34.8 µM (inactive) | 32 µM (inactive) | 22.2 µM (inactive) | 31.3 | > 10 µM (inactive) | 18.2 µM (inactive) | 23.2 µM (inactive) | 35.7 µM (inactive) | 21.5 µM (inactive) | 26.5 µM (inactive)
C=CCOc1ccc2c(C)cc(=O)oc2c1C | 61.4 µM (inactive) | 37.8 µM (inactive) | 35.1 µM (inactive) | 27.4 µM (inactive) | 38.5 µM (inactive) | > 100 µM (inactive) | 23.1 µM (inactive) | 35.5 µM (inactive) | 33 µM (inactive) | 55.3 µM (inactive) | 42 µM (inactive) | > 100 µM (inactive) | 35.3 µM (inactive) | 42.8 | 32.4 µM (inactive) | 43.8 µM (inactive) | 52.6 µM (inactive) | 63 µM (inactive) | 29.5 µM (inactive) | 45.4 µM (inactive)
O=C1NCC(NC(=O)C(F)(F)F)c2c(Br)sc(Br)c21 (stereo not given) | > 100 µM (inactive) | > 100 µM (inactive) | > 100 µM (inactive) | > 100 µM (inactive) | > 100 µM (inactive) | > 100 µM (inactive) | > 100 µM (inactive) | > 100 µM (inactive) | > 100 µM (inactive) | > 100 µM (inactive) | > 100 µM (inactive) | > 100 µM (inactive) | > 100 µM (inactive) | > 100 | > 100 µM (inactive) | > 100 µM (inactive) | 24.3 µM (inactive) | > 100 µM (inactive) | > 100 µM (inactive) | > 100 µM (inactive)
COc1ccc(-c2c(CN3CCOCC3)sc3nc4ccccc4n23)cc1 | 11.5 µM (inactive) | 3.39 µM (inactive) | 10.3 µM (inactive) | 15.2 µM (inactive) | 8.32 µM (inactive) | 27.4 µM (inactive) | 8.55 µM (inactive) | 5.51 µM (inactive) | 19 µM (inactive) | 18.5 µM (inactive) | 2.06 µM (inactive) | 31 µM (inactive) | 9.33 µM (inactive) | 5.58 | 6.43 µM (inactive) | 18.5 µM (inactive) | 14.3 µM (inactive) | 8.09 µM (inactive) | 30.3 µM (inactive) | 0.0435 µM (active)
Cn1c2ccccc2c2[nH]c3ccccc3c(=O)c21 | 93.3 µM (inactive) | > 100 µM (inactive) | 50.6 µM (inactive) | > 100 µM (inactive) | > 100 µM (inactive) | > 100 µM (inactive) | > 100 µM (inactive) | > 100 µM (inactive) | > 100 µM (inactive) | > 100 µM (inactive) | > 100 µM (inactive) | > 100 µM (inactive) | > 100 µM (inactive) | > 100 | 46.2 µM (inactive) | 31.8 µM (inactive) | 69.2 µM (inactive) | > 100 µM (inactive) | > 100 µM (inactive) | > 100 µM (inactive)
CC(=O)CC1(O)C(=O)c2c(Br)sc(Br)c2C1=O | 55.5 µM (inactive) | 21.1 µM (inactive) | 32.4 µM (inactive) | 20 µM (inactive) | 30.1 µM (inactive) | 19.5 µM (inactive) | 24.7 µM (inactive) | 31.3 µM (inactive) | 17.8 µM (inactive) | 30.2 µM (inactive) | 22.3 µM (inactive) | 29 µM (inactive) | 20.6 µM (inactive) | 20.4 | 18.4 µM (inactive) | 17.7 µM (inactive) | 59.7 µM (inactive) | 17 µM (inactive) | 32.2 µM (inactive) | 15.1 µM (inactive)
O=S(=O)(O)c1ccc(/N=N/c2ccc(/N=N/c3c(O)ccc4ccccc34)cc2)cc1 | > 100 µM (inactive) | 4.76 µM (inactive) | > 100 µM (inactive) | > 100 µM (inactive) | > 100 µM (inactive) | > 94.2 µM (inactive) | > 100 µM (inactive) | > 100 µM (inactive) | > 100 µM (inactive) | > 100 µM (inactive) | > 100 µM (inactive) | > 100 µM (inactive) | > 100 µM (inactive) | > 100 | > 91.8 µM (inactive) | > 100 µM (inactive) | > 100 µM (inactive) | 38.6 µM (inactive) | > 100 µM (inactive) | > 51.3 µM (inactive)
Cc1ccc([N+](=O)[O-])c2c(NCC(O)CO)ccnc12 (stereo not given) | 90.8 µM (inactive) | 95.1 µM (inactive) | > 100 µM (inactive) | 19.8 µM (inactive) | 32.1 µM (inactive) | 41.8 µM (inactive) | 45.9 µM (inactive) | 84.9 µM (inactive) | 31.8 µM (inactive) | 60.4 µM (inactive) | 42.3 µM (inactive) | 73.8 µM (inactive) | 70.3 µM (inactive) | 28.8 | 18.6 µM (inactive) | 37.6 µM (inactive) | > 100 µM (inactive) | 43.2 µM (inactive) | 74.3 µM (inactive) | 83.9 µM (inactive)
COC(=O)c1sc2ncc3c(c2c1N)CC(C)CC3 (stereo not given) | > 100 µM (inactive) | > 100 µM (inactive) | > 100 µM (inactive) | > 100 µM (inactive) | > 100 µM (inactive) | > 100 µM (inactive) | 70.6 µM (inactive) | > 100 µM (inactive) | > 100 µM (inactive) | > 100 µM (inactive) | > 100 µM (inactive) | > 100 µM (inactive) | > 100 µM (inactive) | > 100 | > 100 µM (inactive) | 71.3 µM (inactive) | 41.4 µM (inactive) | > 100 µM (inactive) | > 100 µM (inactive) | > 100 µM (inactive)
c1cc2nnc1SCCSCCSc1ccc(nn1)SCCSCCS2 | > 100 µM (inactive) | > 100 µM (inactive) | > 100 µM (inactive) | > 100 µM (inactive) | > 100 µM (inactive) | > 100 µM (inactive) | > 100 µM (inactive) | > 100 µM (inactive) | > 100 µM (inactive) | > 100 µM (inactive) | > 100 µM (inactive) | 31 µM (inactive) | > 100 µM (inactive) | > 100 | > 100 µM (inactive) | > 100 µM (inactive) | 18.5 µM (inactive) | > 100 µM (inactive) | > 100 µM (inactive) | > 100 µM (inactive)
C/C(=C\[C@H]1C[C@@H]([C@@H]2CC[C@]34C[C@]23C=C[C@@H]2[C@@]3(C)CC=C5C[C@@H](c6ccccc6)OC[C@]5(C)[C@@H]3C[C@@H](O)[C@]24C)C(=O)O1)CO [DICHAPETALIN A] | 11.8 µM (inactive) | < 0.01 µM (active) | 1.59 µM (inactive) | 1.51 µM (inactive) | 1.78 µM (inactive) | 1.19 µM (inactive) | 77.8 µM (inactive) | 0.624 µM (active) | 6 µM (inactive) | 6.75 µM (inactive) | 1.71 µM (inactive) | 10.2 µM (inactive) | 2.64 µM (inactive) | 4.38 | 0.286 µM (active) | 1.52 µM (inactive) | 3.55 µM (inactive) | 2.92 µM (inactive) | 2.48 µM (inactive) | 1.04 µM (active)
